Experiments:
γ-secretase = γ-secretase activity / APP processing in U2OS APP-C99-tGFP cells; format: cell-based; details: 3 μM, positive control
Experimental: PC12 and HEK293T cells were obtained from LGC Promochem GmbH (Teddington, UK) and cultured under the conditions specified by the manufacturer. NIH3T3 cells were stably transfected with human TrkB plasmid. PC12 cells were grown in DMEM medium (11965084, Gibco, Grand Island, NY, USA) containing 10% Horse Serum (16050122, Gibco, Grand Island, NY, USA), 5% Fetal Bovine Serum (10270106, Gibco, Grand Island, NY, USA), 100 units/mL Penicillin and 0.1 mg/mL Streptomycin (15140122, Gibco, Grand Island, NY, USA) at 5% CO2 and 37 °C. Cells were used between passages 5–20. HEK293T and NIH3T3 cells were grown in the same medium as PC12 cells supplemented with 10% Fetal Bovine Serum and lacking Horse Serum. For transient transfection of HEK293T cells, lipofectamine was used and cells were transfected with human p75^NTR and Traf6 plasmids. To determine the intracellular activity of endogenous secretases, we tagged (tGFP) a truncated mutant (Tm) of APP containing the original amino acids sequence from M516 to N773. This Tm conserves the secretases cleavage sites, clathrin binding site, tau protein binding site, collagen binding site and some glycosylation sites critical for protein localization and intracellular trafficking. The cDNA of the TmAPP gene was amplified by PCR and subcloned into pturbo-GFP vector. The construction was transfected into U2OS cells (ATCC Cat Number HTB-96) using Lipofectamine LTX (Thermo Fisher Scientific, Waltham, MA, USA). After 48 h, individual cells were plated in MTP96 plates using F.SIGHT (CYTENA GmbH, Freiburg, Germany), and cultured in complete medium containing 250 μg/mL G418 for selection. The selection medium was changed every two to three days. The cells were allowed to grow for 3 to 4 weeks, after which clones were isolated for further analysis. Resistant clones were checked by RT-PCR and epifluorescence microscopy.
The Alzheimer’s Disease (AD) phenotype is partly attributed to the toxic effects caused by oligmeric Aβ, which results in reduced neuronal trophic support, caused by deregulation of neurotrophic signaling. It is therefore reasonable that a small molecule that can selectively activate TrkA signaling and promote neuronal survival could alleviate the detrimental effects caused by toxic Aβ oligomers, especially during the early phases of the disease or modulate APP misprocessing and therefore reduce the production of the toxic Aβ. The U2OS stably expressing APP-C99-tGFP cell line was used in order to monitor γ-secretase activity, the process responsible for Aβ production from APP. The assay achieves this by measuring the levels of fluorescent APP-C99 construct produced by β-secretase activity. When γ-secretase is active, the construct is cleaved, leading to Aβ production. […] Therefore, higher fluorescence levels correspond to decreased γ-secretase activity and Aβ aggregate formation by extension. […] In addition, in order to investigate whether ENT-A013 can protect cells against Aβ-induced toxicity we isolated neurons from the hippocampus of E17.5 mouse embryos, a brain area that is heavily affected in AD. Neurons were left in culture for 16–18 DIV and then were treated with oligomeric Aβ and ENT-A013 for 48 h. Subsequently, cells were fixed and cell death was assessed using TUNEL assay.
(A,B) Primary hippocampal neurons were treated for 48 h with oligomeric Aβ in the presence of ENT-A013 and TUNEL assay was used to quantify cell death. Representative images from 3 independent experiments. Data are shown as ±SEM. One-way ANOVA, Tukey’s Test correction: ** p < 0.01; *** p < 0.001. (C) Aggregate formation on untreated cells, treated with DAPT inhibitor of γ-secretase or with compound ENT-A013. […] Aggregate formation was quantified with a BD Pathway 855 High-Content Bioimager and Attonvision software.

PC12 cells = experiment: CellTox assay, serum deprivation-induced cell death; format: cell-based; details: serum deprivation; for CellTox positive cells normalized to total number of cells: 24 h, 500 nM; for IC50: CellTox, read-out: IC50 (anti-apoptotic dose–response)
Experimental: CellTox assay (G8742, Promega Corporation, Maddison, WI, USA) was used to assess survival of PC12 cells under serum deprivation conditions. PC12 cells were plated in 96-well plates, starved of serum for 4 h and subsequently treated with NGF (100 ng/mL) or ENT-A013 (500 nM) in the presence or absence of TrkA inhibitor GW441756 (20 μM, G-190, Alomone labs, Jerusalem, Israel) for 24 h. CellTox assay reagents and Hoescht (1:10,000, H3570, Invitrogen, Waltham, MA, USA) were added to each well for 30′ and cells were then imaged with a Zeiss AXIO Vert A1 fluorescent microscope (Zeiss, Jena, Germany). CellTox positive cells were normalized to total number of cells for each image.

Erk1/2 [1] = experiment: Erk1/2 phosphorylation in PC12 cells (Western blot); format: cell-based; details: for Erk1/2 phosphorylation: 500 nM, 30′
Experimental: (§1) For immunoprecipitation experiments PC12 or HEK293T, cells were used when at 70–80% confluent. Cells were starved of serum for 4 h and subsequently treated with 100 ng/mL NGF or 500 nM of compound ENT-A013 for 30′. Cells were then lysed in Pierce™ IP Lysis Buffer (87788, Thermo Fischer Scientific, Waltham, MA, USA) containing proteases (539138, Calbiochem, Darmstadt, Germany) and phosphatase inhibitors (524629, Calbiochem, Darmstadt, Germany). Lysates were then immunoprecipitated overnight at 4 °C with TrkA antibody (1:100, 06-574, Sigma-Aldrich, St. Louis, MO, USA) (Table S1) or p75^NTR antibody (1:100, ab6172, Abcam plc., Cambridge, UK) followed by 4 h incubation with protein G-plus agarose beads (sc-2002, Santa Cruz Biotechnology, Inc., Dallas, TX, USA). Beads were then collected, washed 3X with lysis buffer, resuspended in SDS loading buffer and subjected to Western blot against phosphorylated Tyrosine (1:1000, BAM1676, R&D Systems, Inc., Minneapolis, MN, USA) or Traf6 antibody (1:2000, ab33915, Abcam, plc., Cambridge, UK). Whole cell lysates were subjected to Western blot against TrkA (1:1000, 06-574, Sigma-Aldrich, St. Louis, MO, USA), phosphorylated TrkB (1:1000, ABN1381, Sigma-Aldrich, St. Louis, MO, USA), phosphorylated TrkC (1:1000, STJ90960, St John’s Laboratory, Ltd., London, UK), TrkB (1:1000, 07-225-I, Sigma-Aldrich, St. Louis, MO, USA), TrkC (1:1000, C44H5, Cell Signaling Technology, Danvers, MA, USA), p75 (1:1000, 839701, Biolegend, Inc., San Diego, CA, USA), Traf6 (1:2000, ab33915, Abcam, plc., Cambridge, UK) phosphorylated Akt (1:1000, 9721S, Cell Signaling Technology, Danvers, MA, USA), phosphorylated Erk1/2 (1:1000, 9101S, Cell Signaling Technology, Danvers, MA, USA), total Akt (1:1000, 4691S Cell Signaling Technology, Danvers, MA, USA) and total Erk1/2 (1:1000, 4695S, Cell Signaling Technology, Danvers, MA, USA).

TrkA [2] = target: T1, TrkA (Rattus norvegicus, UniProt P35739); experiment: TrkA phosphorylation in PC12 cells (IP with TrkA antibody, Western blot against phosphorylated Tyrosine); format: cell-based; details: for time TrkA phosphorylation is sustained after treatment: PC12 cells, 10, 30 or 60′ treatment
T1 construct: we used PC12 cells, a cell line that express TrkA and p75^NTR; host or cells: PC12
Experimental: as §1, with “Cells were starved of serum for 4 h and subsequently treated with 100 ng/mL NGF or 500 nM of compound ENT-A013 for 30′.” left out

TrkA [3] = target: T1, TrkA; parameters: method as in PMID 27618740; details: cited from earlier work
Erk1/2 [4] = system: Erk1/2; parameters: method as in PMID 27618740; details: cited from earlier work
[5] = parameters: method as in PMID 27498123, PMID 33638308; details: t = 60 min; cited from earlier work

T1 sequence (P35739 33-799): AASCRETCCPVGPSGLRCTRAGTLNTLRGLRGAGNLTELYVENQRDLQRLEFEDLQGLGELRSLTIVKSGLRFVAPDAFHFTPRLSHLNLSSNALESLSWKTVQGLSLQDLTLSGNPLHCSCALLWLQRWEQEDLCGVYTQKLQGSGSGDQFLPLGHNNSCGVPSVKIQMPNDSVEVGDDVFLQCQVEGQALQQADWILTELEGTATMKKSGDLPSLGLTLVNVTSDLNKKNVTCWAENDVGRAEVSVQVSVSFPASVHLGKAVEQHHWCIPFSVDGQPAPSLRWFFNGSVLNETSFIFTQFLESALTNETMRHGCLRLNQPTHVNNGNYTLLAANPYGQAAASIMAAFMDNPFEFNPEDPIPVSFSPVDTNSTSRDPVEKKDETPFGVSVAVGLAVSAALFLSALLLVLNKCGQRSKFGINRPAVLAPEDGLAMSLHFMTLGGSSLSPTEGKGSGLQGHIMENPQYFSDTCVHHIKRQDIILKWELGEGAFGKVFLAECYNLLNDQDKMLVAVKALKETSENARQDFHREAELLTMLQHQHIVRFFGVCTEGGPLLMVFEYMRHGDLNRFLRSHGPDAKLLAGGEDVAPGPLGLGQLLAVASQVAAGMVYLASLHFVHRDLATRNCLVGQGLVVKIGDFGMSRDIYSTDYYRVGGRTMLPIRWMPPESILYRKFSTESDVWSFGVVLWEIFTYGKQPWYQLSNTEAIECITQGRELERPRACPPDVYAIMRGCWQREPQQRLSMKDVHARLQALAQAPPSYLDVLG

In the case of `C[C@H](NC(=O)Cc1cc(F)cc(F)c1)C(=O)N[C@H](C(=O)OC(C)(C)C)c1ccccc1` [DAPT, reference compound], the “fluorescence levels (APP-C99-tGFP, in words)” value (γ-secretase) is reported as “Fluorescence levels increased”.

For `CC12CCC(O)CC1=CCC1C2CCC2(C)C1CCC21CC1C=CBr` (stereo not drawn) [ENT-A013Z], the “CellTox positive cells normalized to total number of cells” value (PC12 cells) was 0.08 ± 0.02, the IC50 (PC12 cells) was 273 nM and the “time Erk1/2 phosphorylation is sustained after treatment” value (Erk1/2 [1]) was “up to 1 hr”. For the same molecule, the Erk1/2 phosphorylation (Erk1/2 [1]) was 4.13 ± 1.46 % of control FC and the “time TrkA phosphorylation is sustained after treatment” value (TrkA [2]) was “up to 1 hr”.

In the case of `C[C@]12CC[C@H](O)CC1=CC[C@@H]1[C@@H]2CC[C@@]2(C)[C@H]1CC[C@@]21O[C@@H]1CO` [BNN27], the “time TrkA is phosphorylated after treatment” value (TrkA [3]) is listed as “up to 6 hr”, the “time beyond which Erk1/2 is not activated” value (Erk1/2 [4]) is listed as at most 15 min and the “residual of time zero” value [5] is listed as 70%.

For `CC12CCC(O)CC1=CCC1C2CCC2(C)C1CCC21CC1C=CBr` (stereo not drawn) [ENT-A013E], the “CellTox positive cells normalized to total number of cells” value (PC12 cells) was 0.07 ± 0.02, the IC50 (PC12 cells) was 281 nM and the “time Erk1/2 phosphorylation is sustained after treatment” value (Erk1/2 [1]) was “up to 1 hr”. The Erk1/2 phosphorylation (Erk1/2 [1]) was 7.87 ± 2.23 % of control FC and the “time TrkA phosphorylation is sustained after treatment” value (TrkA [2]) was “up to 1 hr”.

In the case of “NGF: Nerve Growth Factor, neurotrophin acting through TrkA and p75NTR receptors”, the TrkA phosphorylation (TrkA [2]; PC12 cells, compound 500 nM or NGF 100 ng/mL, 30′) is reported as 2.30 ± 0.62 % of control FC.

From paper PMC8945229, “Development and Biological Characterization of a Novel Selective TrkA Agonist with Neuroprotective Properties against Amyloid Toxicity” (Biomedicines, 2022)
